In US20150065416A1, “NOVEL DRUG COMBINATION” (FAB PHARMA SAS, priority 2013, published 2015):
≈ marks a conversion by molar mass, not a printed value. Read-outs that look alike come from different tables or passages of the source.

Assays:
[1] = system: A. baumannii isolates; test: Individual antimicrobial susceptibility testing (MIC, broth microdilution, CLSI); assay type: cell-based, Acinetobacter baumannii
Protocol: In the antimicrobial susceptibility testing 77 isolates of A. baumannii (from 2010) in the following sub-groups were tested: • 22 isolates generally susceptible to antimicrobial agents (“Sus”) • 20 carbapenem-resistant isolates (e.g. “MPM-R”) • 20 aminoglycoside-resistant isolates (e.g. “AMK-R”) • 15 colistin-resistant isolates. (e.g. “COL-R”)
Minimum inhibitory concentration (MIC) endpoints were determined by broth microdilution according to CLSI guidelines (CLSI, M7-A8 & M100-S22, 2012). Panels were prepared at IHMA using cation-adjusted Mueller-Hinton broth. Colonies were taken directly from a second-pass culture plate and prepared to a suspension equivalent of the 0.5 McFarland standard using normal saline.
Testing was carried out as described in the General Procedures to determine minimum inhibitory concentration (MIC) end points for compound (I), amikacin, colistin, gentamicin, meropenem and tobramycin, for 77 A. baumannii isolates. Under the “MIC (μg/ml)” heading, the first column (Range) indicates the MIC end points for the particular number (N) of isolates tested, the second column (50%) provides an estimate of the concentration that inhibits 50% (MIC50) of bacterial isolates tested, and the third column (90%) provides an estimate of the concentration that inhibits 90% of the bacterial isolates tested.

[2] = system: A. baumannii CIP 5377, CIP 7034, AYE, SAN, RCH; test: Antimicrobial susceptibility testing (MIC, broth microdilution, EUCAST; Example 5); assay type: cell-based, Acinetobacter baumannii; settings: Acinetobacter baumannii
Excerpt: A. baumannii CIP 5377 (ATCC® 17978): low cephalosporinase producing strain, susceptible to meropenem and amikacin, isolated in an infected patient
A. baumannii CIP 7034: low cephalosporinase producing strain, susceptible to meropenem and amikacin A. baumannii AYE ATCC® BAA1710™: extended spectrum beta-lactamase producing strain susceptible to meropenem and resistant to amikacin
A. baumannii SAN-94040 (SAN): cephalosporinase-overproducing strain, susceptible to meropenem and intermediate to amikacin and resistant to fluoroquinolones, isolated from blood cultures of an intensive care patient with nosocomial pneumonia from North Africa (Algeria).
A. baumannii RCH-69: cephalosporinase producing strain; low susceptibility to imipenem and resistant to amikacin.

[3] = system: A. baumannii SAN-94040; test: Mouse model of A. baumannii pneumonia, Study 2: bacterial counts in blood and tissues; assay type: in vivo, Acinetobacter baumannii
Protocol: The bacterial inoculum was prepared in order to obtain a suspension containing 10^8 CFU/mL of Acinetobacter baumannii in saline.
Experimentations were performed with six-week old female C3H/HeN mice (18-20 g, Breeding Centre JANVIER (Ile saint Genest Mayenne 53)) because of their particular susceptibility to Acinetobacter baumannii and the reproducibility of the results (inbreeding in the breed). Each mouse was individually marked and housed in cages containing five animals/cage under ventilated and controlled (temperature and humidity) atmosphere.
The mice were rendered transiently neutropenic by 2 intra-peritoneal (IP) injections of 150 μL of cyclophosphamide (Endoxan® 150 mg/kg) 4 (D-4) and 3 (D-3) days before the Acinetobacter baumannii inoculation (Day 0). This transient immunosuppression was sufficient to facilitate the development of the A. baumannii pneumonia while allowing the recovery of the neutrophil influx 2 (Day 2) days after inoculation in order to avoid or limit a systemic bacterial dissemination.
Mice were anesthetized by a mixture of oxygen and isoflurane. The bacterial inoculation was performed on Day 0 by intra-tracheal installation using an endotracheal catheter (50 μl of the suspension, thus 5.106 CFU). The positioning of the catheter in the trachea (instead of in the oesophagus) was checked by a “ring test”. The bacterial count in lungs was checked for all study groups by sacrificing one mouse immediately after inoculation.
Sample time points: T0 (pre-inoculation), T24h (post inoculation), T48h and T72h.
Blood samples preparation: At each time point, three mice were sacrificed per group by cervical dislocation.
Tissue samples preparation: At each time point, three mice were sacrificed per group. Lungs, kidneys, liver and spleen were collected after the blood sampling and cervical dislocation. Tissues were wiped with a sterile gauze to remove blood contaminant outside. Tissues were then be weighed, finely ground and plated on agar for quantitative culture. Cultures were incubated at 37° C. for 18 to 24 hours.
The aim of this experiment was to assess the bacterial counts in blood, lungs, spleen, liver and kidneys of transiently neutropenic female C3H/HeN mice administered, 3 hours post-inoculation of A. baumannii SAN-94040 via intra-tracheal route, with compound (I) via intra-peritoneal route at 200 mg/kg 3 times daily (every 8 hours) for 1 day alone and in combination with meropenem at 50 mg/kg 3 times daily (every 8 hours) for 1 day or with amikacin at 18 mg/kg 3 times daily (every 8 hours) for 1 day.
All results concerning bacterial counts were expressed from Day 0 (inoculation) to 72 hours post-inoculation (Day 3). Bacterial counts on Day 3 were carried out only on surviving mice and results were more objectionable for interpretation. On Day 0, only bacterial count in lung of control mice was performed. Bacterial cell counts were determined as set out in the General Procedures.

[4] = Acinetobacter baumannii, All isolates, N=77
[5] = Acinetobacter baumannii, Amikacin-resistant isolates, N=20
[6] = Acinetobacter baumannii, Colistin-resistant isolates, N=15
[7] = Acinetobacter baumannii, Meropenem-resistant isolates, N=20
[8] = Acinetobacter baumannii, Susceptible isolates, N=22
[9] = A. baumannii AYE, read-out: MIC
[10] = A. baumannii CIP 5377, read-out: MIC
[11] = A. baumannii CIP 7034, read-out: MIC
[12] = A. baumannii RCH, read-out: MIC
[13] = A. baumannii SAN, read-out: MIC
[14] = Study 2, 24 h, compound (I) 200 mg/kg Q8h, amikacin 18 mg/kg, meropenem 50 mg/kg Q8h I.P. for 1 day
[15] = Amikacin-resistant isolates, N=20

`NCC[C@H](O)C(=O)N[C@@H]1C[C@H](N)[C@@H](O[C@H]2O[C@H](CN)[C@@H](O)[C@H](O)[C@H]2O)[C@H](O)[C@H]1O[C@H]1O[C@H](CO)[C@@H](O)[C@H](N)[C@H]1O` [amikacin] showed an MIC50 [1, 4] of 8 µg/mL (≈ 13.7 µM), an MIC90 [1, 4] greater than 128 µg/mL and an MIC50 [1, 5] greater than 128 µg/mL. The MIC90 [1, 5] was greater than 128 µg/mL, the MIC50 [1, 6] was 64 µg/mL (≈ 109 µM) and the MIC90 [1, 6] was greater than 128 µg/mL. The MIC50 [1, 7] was 8 µg/mL (≈ 13.7 µM), the MIC90 [1, 7] was 128 µg/mL (≈ 219 µM) and the MIC50 [1, 8] was 4 µg/mL (≈ 6.83 µM). For the same molecule, the MIC90 [1, 8] was 8 µg/mL (≈ 13.7 µM), the “MIC Range” value ([1]; Susceptible isolates, N=22) was 0.25 to 8 µg/mL and the MIC [2, 9] was 32 µg/mL (≈ 54.6 µM). For the same molecule, the MIC [2, 10] was 2 µg/mL (≈ 3.42 µM), the MIC [2, 11] was 8 µg/mL (≈ 13.7 µM) and the MIC [2, 12] was greater than 32 µg/mL. For the same molecule, the MIC [2, 13] was 4 µg/mL (≈ 6.83 µM), the lung bacterial counts [3, 14] was 1.33E+09 CFU/g Lung and the lung bacterial counts ([3]; Study 2, 48 h) was 4.41E+08 CFU/g Lung.
With `CCc1cc(O)c(Oc2ccc(C(N)=O)cc2F)cc1F` [compound (I), 4-(4-ethyl-5-fluoro-2-hydroxyphenoxy)-3-fluorobenzamide] the “range of the majority of MICs” value ([1]; 77 isolates) was 2 to 8 µg/mL, the MIC50 [1, 4] was 4 µg/mL (≈ 13.6 µM) and the MIC90 [1, 4] was 8 µg/mL (≈ 27.3 µM). The MIC50 [1, 5] was 4 µg/mL (≈ 13.6 µM), the MIC90 [1, 5] was 8 µg/mL (≈ 27.3 µM) and the MIC50 [1, 6] was 4 µg/mL (≈ 13.6 µM). It also gave an MIC90 [1, 6] greater than 32 µg/mL, an MIC50 [1, 7] of 8 µg/mL (≈ 27.3 µM) and an MIC90 [1, 7] of 8 µg/mL (≈ 27.3 µM). It also gave an MIC50 [1, 8] of 4 µg/mL (≈ 13.6 µM), an MIC90 [1, 8] of 8 µg/mL (≈ 27.3 µM) and an MIC ([1]; Acinetobacter baumannii, 77 isolates, FIG. 1 and 2, read-out: mode MIC) of 4 µg/mL (≈ 13.6 µM). For the same molecule, the “MIC Range” value [1, 15] was 2 to 8 µg/mL, the “MIC Range” value ([1]; Susceptible isolates, N=22) was 0.5 to 8 µg/mL and the MICs ranging ([1]; amikacin-R isolates) was 2 to 8 µg/mL. The MICs ranging ([1]; susceptible isolates) was 0.5 to 8 µg/mL, the MIC ([2]; 5 isolates of A. baumannii, read-out: MICs ranging) was 1 to 2 µg/mL (≈ 3.41 to 6.82 µM) and the MIC [2, 9] was 2 µg/mL (≈ 6.82 µM). It also gave an MIC [2, 10] of 2 µg/mL (≈ 6.82 µM), an MIC [2, 11] of 1 µg/mL (≈ 3.41 µM) and an MIC [2, 12] of 2 µg/mL (≈ 6.82 µM). It also gave an MIC [2, 13] of 2 µg/mL (≈ 6.82 µM), a lung bacterial counts [3, 14] of 4.72E+09 CFU/g Lung and a lung bacterial counts ([3]; Study 2, 48 h) of 3.75E+05 CFU/g Lung.
With `C[C@@H](O)[C@H]1C(=O)N2C(C(=O)O)=C(S[C@@H]3CN[C@H](C(=O)N(C)C)C3)[C@H](C)[C@H]12` [meropenem] the MIC50 [1, 4] was 4 µg/mL (≈ 10.4 µM), the MIC90 [1, 4] was greater than 32 µg/mL and the MIC50 [1, 5] was 2 µg/mL (≈ 5.22 µM). The MIC90 [1, 5] was 16 µg/mL (≈ 41.7 µM), the MIC50 [1, 6] was 32 µg/mL (≈ 83.4 µM) and the MIC90 [1, 6] was greater than 32 µg/mL. The MIC50 [1, 7] was greater than 32 µg/mL, the MIC90 [1, 7] was greater than 32 µg/mL and the MIC50 [1, 8] was 0.25 µg/mL (≈ 0.652 µM). For the same molecule, the MIC90 [1, 8] was 2 µg/mL (≈ 5.22 µM), the “MIC Range” value [1, 15] was 0.5 to 32 µg/mL and the “MIC Range” value ([1]; Susceptible isolates, N=22) was 0.06 to 4 µg/mL. The MIC [2, 9] was 1 µg/mL (≈ 2.61 µM), the MIC [2, 10] was 0.25 µg/mL (≈ 0.652 µM) and the MIC [2, 11] was 1 µg/mL (≈ 2.61 µM). It also gave an MIC [2, 12] of 32 µg/mL (≈ 83.4 µM), an MIC [2, 13] of 1 µg/mL (≈ 2.61 µM) and a blood bacterial counts ([3]; Study 2, 24 h) of 0 CFU/mL Blood. It also gave a lung bacterial counts [3, 14] of 3.75E+04 CFU/g Lung, a blood bacterial counts ([3]; Study 2, 48 h) of 0 CFU/mL Blood and a kidney bacterial counts ([3]; Study 2, 48 h) of 0 CFU/g Kidneys. The liver bacterial counts ([3]; Study 2, 48 h) was 0 CFU/g Liver, the lung bacterial counts ([3]; Study 2, 48 h) was 5.56E+06 CFU/g Lung and the blood bacterial counts ([3]; Study 2, 72 h) was 0 CFU/mL Blood. It also gave a kidney bacterial counts ([3]; Study 2, 72 h) of 0 CFU/g Kidneys, a liver bacterial counts ([3]; Study 2, 72 h) of 0 CFU/g Liver and a spleen bacterial counts ([3]; Study 2, 72 h) of 0 CFU/g Spleen. It also gave a lung bacterial counts ([3]; Study 2, 72 h, surviving mice only) of 1.00E+00 CFU/g Lung.
